Measurements as given in PubChem BioAssay (NCI).
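Five concentrations, 48 hours, 96-well plates. GI50 = concentration required for 50% inhibition of growth. At the TGI there is no net growth.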

Experiments:
Experiment in all cases: NCI-60 cell line screen, 48 h
[1] = system: CAKI-1 renal
[2] = system: EKVX NSCLC
[3] = system: HOP-62 NSCLC
[4] = system: LXFL 529 NSCLC
[5] = system: OVCAR-4 ovarian
[6] = system: PC-3 prostate
[7] = system: SNB-78 CNS
[8] = system: SR leukemia
[9] = system: SW-620 colon
[10] = system: UO-31 renal

Row | Structure (SMILES) | GI50 [1] | TGI [1] | GI50 [2] | TGI [2] | GI50 [3] | TGI [3] | GI50 [4] | TGI [4] | GI50 [5] | TGI [5] | GI50 [6] | TGI [6] | GI50 [7] | TGI [7] | GI50 [8] | GI50 [9] | TGI [9] | GI50 [10] | TGI [10] | TGI [8]
1 | CCC[CH2][Sn]1([CH2]CCC)[O]C(=O)c2ccc(N)cc2[O]1 | 0.119 µM | 1.27 µM | 0.285 µM | 2.47 µM | 1.35 µM | 2.82 µM | 0.0365 µM | 0.248 µM | 1.29 µM | 2.59 µM | 0.985 µM | 2.23 µM | 0.0801 µM | 1.18 µM | 0.549 µM | 0.224 µM | 1.09 µM | 0.465 µM | 1.82 µM | 
2 | CCCCCCCCCCCCCC(=O)NCC(OCC)OCC |  |  |  | > 100 µM |  | > 100 µM |  | > 100 µM |  | > 100 µM |  |  |  | > 100 µM |  |  | > 100 µM |  | > 100 µM | 
3 | Clc1ccc2ns[s+]c2c1 |  | > 100 µM |  | > 100 µM |  | > 29.9 µM |  | > 100 µM |  | > 100 µM |  | > 100 µM |  | > 100 µM |  |  | > 100 µM |  | > 66.8 µM | > 31.6 µM
4 | COc1ccc2ccccc2c1CN1CCOCCOCCN(Cc2c(OC)ccc3ccccc23)CCOCCOCC1 |  | > 100 µM |  | > 100 µM |  | > 100 µM |  | > 100 µM |  | > 100 µM |  |  |  | > 100 µM |  |  | > 94.7 µM |  | > 100 µM | > 100 µM
5 | CC1=C(/C=C/C(C)=C/C=C/C(C)=C/C=C/C=C(C)/C=C/C=C(C)/C=C/C2=C(C)C(=O)C(O)CC2(C)C)C(C)(C)CC(O)C1=O (stereo not drawn) |  | > 100 µM |  | > 100 µM |  | > 100 µM |  |  |  | > 100 µM |  |  |  | > 100 µM |  |  | > 100 µM |  | > 100 µM | > 100 µM
6 | Nc1cc2[nH]cnc2c(=O)[nH]1 |  | 135 µM |  | > 300 µM |  | > 191 µM |  |  |  | > 300 µM |  | > 300 µM |  | > 300 µM |  |  | > 300 µM |  | > 300 µM | > 94.9 µM
7 | N#Cc1c(C[n+]2ccccc2)c2ccccc2oc1=O |  | > 100 µM |  | > 100 µM |  | > 100 µM |  | > 100 µM |  | > 100 µM |  |  |  | > 100 µM |  |  | > 100 µM |  | > 100 µM | > 100 µM
8 | O=C(O)Cc1ccccc1CCc1ccccc1Cl |  | > 100 µM |  | > 100 µM |  |  |  | > 100 µM |  | > 100 µM |  |  |  | > 100 µM |  |  | > 100 µM |  | > 100 µM | > 100 µM
9 | CCOC(=O)C1=C(Nc2ccc(Cl)c(Cl)c2)OC/C1=N\NC(=O)Cc1ccccc1 |  | > 100 µM |  | > 100 µM |  | > 100 µM |  | > 100 µM |  | > 100 µM |  |  |  | > 100 µM |  |  | > 100 µM |  | > 100 µM | 
10 | COC(=O)[C@]1(C)C(OC)=CC(=O)C2C1[C@H]1CCC[C@@H]21 (stereo partly drawn) |  | > 100 µM |  | > 100 µM |  | > 100 µM |  | > 100 µM |  |  |  |  |  | > 100 µM |  |  |  |  | > 100 µM | > 100 µM
11 | COc1cc(/C=C/c2ccc(OC)c(OC)c2OC)cc(OC)c1OC |  | > 96.4 µM |  | > 70.8 µM |  | 32.9 µM |  | 54.9 µM |  | 70.9 µM |  |  |  | 46.4 µM |  |  | > 92.6 µM |  | 46.3 µM | 78.5 µM
12 | COc1cc(C2c3cc4c(cc3[C@@H](OCCN(C)C)C3COC(=O)[C@H]23)OCO4)cc(OC)c1O (stereo partly drawn) |  | 1.33 µM |  | 6.07 µM |  | 0.241 µM |  | 31.7 µM |  | 6.33 µM |  |  |  | > 100 µM |  |  | 3.59 µM |  | 2.04 µM | 0.0831 µM
13 | O=C1CCN2CCC(=O)c3c2c(cc2ccccc32)N1 |  | > 100 µM |  | > 100 µM |  | > 100 µM |  | > 100 µM |  |  |  |  |  | > 100 µM |  |  | > 100 µM |  | > 100 µM | 
14 | Clc1ccc2c(c1)[nH]c1c2nc2sccn21 |  | > 100 µM |  | > 100 µM |  | > 100 µM |  | > 100 µM |  | > 100 µM |  |  |  | > 100 µM |  |  | > 100 µM |  | > 100 µM | > 100 µM
15 | COc1c(Sc2ccccc2)cc(Sc2ccccc2)c2cccnc12 |  | 70.7 µM |  | > 100 µM |  | > 100 µM |  | > 100 µM |  | 61.9 µM |  |  |  | > 100 µM |  |  | > 100 µM |  | 54 µM | 
16 | CS(=O)(=O)NNS(=O)(=O)c1ccc(Cl)cc1 |  | > 100 µM |  | > 100 µM |  | > 100 µM |  | > 100 µM |  | > 100 µM |  |  |  |  |  |  | > 100 µM |  | > 100 µM | > 100 µM
17 | Clc1ccc(-c2c(C3=NCCN3)nnn2-c2ccccc2)cc1 |  | > 100 µM |  | > 100 µM |  | > 100 µM |  | > 100 µM |  | > 100 µM |  |  |  | > 100 µM |  |  | > 100 µM |  | > 100 µM | > 100 µM
